# Numbering of substitutions follows the chain as printed.
# Tests used:
# [1] = test system: Lys^65 to either Ala or Glu in hFFA2; assay: degree of bias to favor Gi-mediated signalling, Lys65 to either Ala or Glu in hFFA2; assay type: cell-based, human; conditions: vs TGFα shedding
# Protocol: (§2) All data are presented as means ± SEM of at least three independent experiments. Data analysis and curve fitting was carried out using the GraphPad Prism software package version 5.0b (GraphPad, San Diego). […] In case of inhibition experiments with antagonists an equivalent analysis was followed to fit an inverse sigmoidal curve. To perform the statistical analysis of curve parameters, data from multiple experiments were fitted independently and resulting curve fit values were analysed with indicated tests. For radioligand binding data, saturation binding curves were generated by fitting the specific binding, which was obtained by subtracting non-specific from total binding, to a one site specific binding model that allows calculation of Kd values for the radioligand at wild type and mutant receptors. To determine affinity of unlabelled ligands, data obtained in displacement assays were fit to an inverse three parameter sigmoidal curve constrained by radioligand affinity and concentration to allow for Ki calculation. To quantify the signaling bias that mutations of hFFA2 show compared to the wild type receptor, bias factor β was calculated by determining the logarithm of the ratio of relative intrinsic activities for a ligand at two different assays[43].
# hFFA2 = molecular target: T1, hFFA2 (Homo sapiens, UniProt O15552); assay: TGFα shedding assay, wild type hFFA2; assay type: cell-based; set-up: HA-tag (C); expressed in transfected cells; host or cells: HEK293, parental and CRISPR/Cas9 G protein-deleted lines, transient transfection
# T1 sequence (O15552 1-330): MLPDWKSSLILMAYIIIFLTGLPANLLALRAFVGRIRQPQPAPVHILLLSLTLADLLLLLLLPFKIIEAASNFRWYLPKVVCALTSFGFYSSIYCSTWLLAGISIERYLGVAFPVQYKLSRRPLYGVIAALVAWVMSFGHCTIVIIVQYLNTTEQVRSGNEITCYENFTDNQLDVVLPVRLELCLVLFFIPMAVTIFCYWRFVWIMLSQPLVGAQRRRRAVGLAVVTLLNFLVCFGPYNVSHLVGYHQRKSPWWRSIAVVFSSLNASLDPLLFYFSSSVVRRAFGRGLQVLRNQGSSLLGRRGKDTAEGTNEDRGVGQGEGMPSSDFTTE
# Protocol: A mixture of 250 ng AP-TGFα, 100 ng receptor of interest and 50 ng Gα protein were transfected using polyethyleneimine into one well of HEK293 cells cultured in a 12-well plate. Transfected cells were detached with PBS containing 0.05% trypsin and 0.52 mM EDTA and harvested by centrifugation at 190 × g for 5 min. The cell pellet was resuspended in PBS, followed by an incubation for 15 min at room temperature. After a second centrifugation at 190 × g for 5 min, pelleted cells were resuspended in 4 ml Hank’s Balanced Salt Solution (HBSS) containing 5 mM HEPES (pH7.4) per well in a 12-well plate. The cell suspensions were plated at 90 μl per well in a 96-well plate and incubated at 37 °C with 5% CO2 for 30 minutes. After the equilibration period 10 μl per well of 10× concentration of compounds were added and incubated for 1 h at 37 °C with 5% CO2. Plates were centrifuged at 190 × g for 2 min and 80 μL of supernatant was transferred into another 96-well plate. Solution containing p-NPP (10 mM p-NPP, 40 mM Tris-HCl (pH 9.5), 40 mM NaCl, 10 mM MgCl2) was added at 80 μl per well into supernatant-only plates as well as cell plates. […] Detailed assay development and analysis has been described previously.
# Lys^65Ala hFFA2 [2] = molecular target: T2, Lys^65Ala hFFA2 (Homo sapiens, UniProt O15552, K65A); assay: HTRF cAMP inhibition assay, Lys65Ala hFFA2; assay type: cell-based; set-up: NanoLuc Luciferase (N); eYFP; expressed in transfected cells; host or cells: Flp-In T-REx HEK293, doxycycline-induced; conditions: compared to wild type hFFA2
# T2 sequence (O15552 1-330 K65A): T1 sequence (O15552 1-330) with K65A
# Protocol: (§1) All cAMP and inositol monophosphate experiments were performed using Flp-In T-REx HEK293 cells induced to express the receptor of interest. Experiments were carried out using respective homogenous time-resolved FRET-based detection kits (CisBio Bioassays; CisBio, Codolet, France) according to the manufacturer’s protocol. For the cAMP inhibition assay cells were plated at 2000 cells/well in low-volume 384-well plates. The ability of agonists to inhibit 1 μM forskolin-induced cAMP production was assessed following a co-incubation for 30 min with agonist compounds. For the inositol monophosphate accumulation assay cells were plated at 7500 cells/well in low-volume 384-well plates and incubated for 2 h at 37 °C with test compounds. To assess ability of antagonists to inhibit agonist responses, cells were pre-incubated with antagonist compounds for 30 min at 37 °C prior to addition of an EC80 concentration of agonist. Respective reactions were stopped according to the manufacturer’s instructions and the output was measured by with a PHERAstar FS plate reader (BMGLabtech, Aylesbury, UK).
# Lys^65Glu hFFA2 [3] = molecular target: T3, Lys^65Glu hFFA2 (Homo sapiens, UniProt O15552, K65E); assay: bias factor β calculation, Lys65Glu hFFA2 compared to WT; assay type: cell-based; conditions: Pathway 2 TGFα shedding
# T3 construct: NanoLuc Luciferase (N); eYFP; expressed in transfected cells; host or cells: Flp-In T-REx HEK293, doxycycline-induced
# T3 sequence (O15552 1-330 K65E): T1 sequence (O15552 1-330) with K65E
# Protocol: as §2
# Lys^65Ala hFFA2 [4] = molecular target: T2, Lys^65Ala hFFA2; assay: bias factor β calculation, Lys65Ala hFFA2 compared to WT; assay type: cell-based; set-up: NanoLuc Luciferase (N); eYFP; expressed in transfected cells; host or cells: Flp-In T-REx HEK293, doxycycline-induced; conditions: Pathway 2 TGFα shedding
# Protocol: as §2
# Lys^65Ala hFFA2 [5] = molecular target: T2, Lys^65Ala hFFA2; conditions: compared with loss of potency in inositol monophosphate assays
# Protocol: Membranes were generated from Flp-In T-REx HEK293 cells treated with 100 ng/mL doxycycline to induce expression of receptor of interest. Cells were washed with ice-cold phosphate-buffered saline, removed from dishes by scraping and centrifuged at 3000 rpm for 5 min at 4 °C. Pellets were resuspended in TE buffer (75 mM Tris-HCl, 5 mM EDTA; pH 7.5) containing a protease inhibitor mixture (Roche Applied Science, West Sussex, UK) and homogenized with a 5 ml hand-held homogenizer. This material was centrifuged at 1500 rpm for 5 min at 4 °C and the supernatant was further centrifuged at 50000 rpm for 30 min at 4 °C. The resulting pellet was resuspended in TE buffer and protein content was assessed using a BCA protein assay kit (Pierce, Fisher Scientific, Loughborough, UK).
# Binding was initiated by the addition of membranes (5 µg of protein per tube). […] Radioactivity was quantified by liquid scintillation spectrometry.
# All data are presented as means ± SEM of at least three independent experiments. […] To perform the statistical analysis of curve parameters, data from multiple experiments were fitted independently and resulting curve fit values were analysed with indicated tests. […]
# Lys^65Glu hFFA2 [6] = molecular target: T3, Lys^65Glu hFFA2; assay: inositol monophosphate accumulation assay, Lys65Glu hFFA2; assay type: cell-based; conditions: Glu substitution
# Protocol: as §1
# Lys^65Ala hFFA2 [7] = molecular target: T2, Lys^65Ala hFFA2; assay: inositol monophosphate accumulation assay, Lys65Ala hFFA2; assay type: cell-based; set-up: NanoLuc Luciferase (N); eYFP; expressed in transfected cells; host or cells: Flp-In T-REx HEK293, doxycycline-induced; conditions: Ala substitution
# Protocol: as §1
# Lys^65Arg hFFA2 = molecular target: T4, Lys^65Arg hFFA2 (Homo sapiens, UniProt O15552, K65R); assay: bias factor β calculation, Lys65Arg hFFA2 compared to WT; assay type: cell-based; conditions: Pathway 2 TGFα shedding
# T4 construct: NanoLuc Luciferase (N); eYFP; expressed in transfected cells; host or cells: Flp-In T-REx HEK293, doxycycline-induced
# T4 sequence (O15552 1-330 K65R): T1 sequence (O15552 1-330) with K65R
# Protocol: as §2
# Lys^65Glu hFFA2 [8] = molecular target: T3, Lys^65Glu hFFA2; assay: HTRF cAMP inhibition assay, Lys65Glu hFFA2; assay type: cell-based; conditions: compared to wild type hFFA2
# Protocol: as §1
# human neutrophils = conditions: cited from earlier work
smiles,measurement,setting,value
"CCC(=O)O [Compound C3, propionate]","bias to favor Gi-mediated signalling compared to wild type hFFA2, based on [35S]GTPγS binding studies",[1],41–60 fold
same,"bias to favor Gi-mediated signalling compared to wild type hFFA2, based on cAMP inhibition studies",[1],100–125 fold
same,potency in TGFα shedding assay (parental HEK293) higher than in inositol monophosphate accumulation assay,hFFA2; wild type hFFA2,~10 fold
same,"TGFα shedding response in HEK293 cells lacking Gαq, Gα11, Gα12, Gα13","hFFA2; wild type hFFA2, all four G protein α subunits eliminated",no TGFα shedding response
same,maximal effect in cAMP inhibition at Lys65Ala hFFA2,Lys^65Ala hFFA2 [2],greater than at wild type hFFA2
same,β factor (compared to WT) K65E,Lys^65Glu hFFA2 [3]; Pathway 1 GTPγS,1.62
same,β factor (compared to WT) K65E,Lys^65Glu hFFA2 [3]; Pathway 1 cAMP,2.10
same,β factor (compared to WT) K65A,Lys^65Ala hFFA2 [4]; Pathway 1 GTPγS,1.78
same,β factor (compared to WT) K65A,Lys^65Ala hFFA2 [4]; Pathway 1 cAMP,2.00
same,ability to compete for binding with [3H]GLPG0974 at Lys65Ala hFFA2,Lys^65Ala hFFA2 [5],much less affected
same,"loss of agonist potency at Lys65Glu hFFA2 vs wild type, inositol monophosphate accumulation",Lys^65Glu hFFA2 [6],greater than 30 fold
same,"loss of agonist potency at Lys65Ala hFFA2 vs wild type, inositol monophosphate accumulation",Lys^65Ala hFFA2 [7],greater than 30 fold
same,β factor (compared to WT) K65R,Lys^65Arg hFFA2; Pathway 1 GTPγS,−0.10
same,β factor (compared to WT) K65R,Lys^65Arg hFFA2; Pathway 1 cAMP,−0.30
same,maximal effect in cAMP inhibition at Lys65Glu hFFA2,Lys^65Glu hFFA2 [8],greater than at wild type hFFA2
"CC1(C(=O)N(CCCC(=O)O)Cc2cccc(Cl)c2)CCN1C(=O)c1csc2ccccc12 (stereo not shown) [GLPG0974, 4-[[1-(benzo[b]thiophene-3-carbonyl)-2-methylazetidine-2-carbonyl]-(3-chlorobenzyl)amino]butyric acid]",block of chemotaxis of human neutrophils,human neutrophils,effectively blocked chemotaxis of human neutrophils
